Results taken from PubChem BioAssay (NCI).
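Results reflect a 48-hour exposure of cells in 96-well plates to compound at five concentrations. TGI is the concentration that stops growth completely.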

How the values were obtained:
Test in all cases: growth of human tumour cells (NCI), 48 h
A498 renal = tested on: A498 renal
UO-31 renal = tested on: UO-31 renal
IGROV1 ovarian = tested on: IGROV1 ovarian
UACC-257 melanoma = tested on: UACC-257 melanoma
NCI-H522 lung = tested on: NCI-H522 lung
SK-MEL-28 melanoma = tested on: SK-MEL-28 melanoma
SK-OV-3 ovarian = tested on: SK-OV-3 ovarian
OVCAR-8 ovarian = tested on: OVCAR-8 ovarian
BT-549 breast = tested on: BT-549 breast
SR leukemia = tested on: SR leukemia
HT29 colon = tested on: HT29 colon
MDA-MB-231 breast = tested on: MDA-MB-231 breast
M14 melanoma = tested on: M14 melanoma
COLO 205 colon = tested on: COLO 205 colon
HCC-2998 colon = tested on: HCC-2998 colon
SN12C renal = tested on: SN12C renal
786-0 renal = tested on: 786-0 renal
HS 578T breast = tested on: HS 578T breast
UACC-62 melanoma = tested on: UACC-62 melanoma
HOP-92 NSCLC = tested on: HOP-92 NSCLC
U251 CNS = tested on: U251 CNS
CCRF-CEM leukemia = tested on: CCRF-CEM leukemia
MCF7 breast = tested on: MCF7 breast
SK-MEL-5 melanoma = tested on: SK-MEL-5 melanoma
SF-539 CNS = tested on: SF-539 CNS
NCI-H460 lung = tested on: NCI-H460 lung
LOX IMVI melanoma = tested on: LOX IMVI melanoma
K-562 leukemia = tested on: K-562 leukemia
PC-3 prostate = tested on: PC-3 prostate
NCI/ADR-RES ovarian = tested on: NCI/ADR-RES ovarian
EKVX NSCLC = tested on: EKVX NSCLC
KM12 colon = tested on: KM12 colon
A549 NSCLC = tested on: A549 NSCLC
SNB-19 CNS = tested on: SNB-19 CNS
NCI-H226 lung = tested on: NCI-H226 lung
OVCAR-5 ovarian = tested on: OVCAR-5 ovarian
SW-620 colon = tested on: SW-620 colon
RPMI-8226 leukemia = tested on: RPMI-8226 leukemia
NCI-H23 lung = tested on: NCI-H23 lung
MDA-MB-435 = tested on: MDA-MB-435
HCT-116 colon = tested on: HCT-116 colon
SF-295 CNS = tested on: SF-295 CNS
SNB-75 CNS = tested on: SNB-75 CNS
RXF 393 renal = tested on: RXF 393 renal
ACHN renal = tested on: ACHN renal
HL-60(TB) leukemia = tested on: HL-60(TB) leukemia
SF-268 CNS = tested on: SF-268 CNS
CAKI-1 renal = tested on: CAKI-1 renal
HOP-62 NSCLC = tested on: HOP-62 NSCLC
T-47D breast = tested on: T-47D breast
SK-MEL-2 melanoma = tested on: SK-MEL-2 melanoma
MALME-3M melanoma = tested on: MALME-3M melanoma
HCT-15 colon = tested on: HCT-15 colon
DU-145 prostate = tested on: DU-145 prostate
OVCAR-3 ovarian = tested on: OVCAR-3 ovarian
MOLT-4 leukemia = tested on: MOLT-4 leukemia

Q: Which results are given for `COC(=O)C1C(O)C(C)C(=O)C(C)/C=C\C=C(C)C(=O)Nc2c(C)c(OC(C)=O)c3c(c2O)C(=O)C(C)=C2OCOC(=C23)C(C)=CC(C)(O)C(O)C(C)C1O` (stereo unspecified)?
A: TGI (A498 renal): 82.2 µM; TGI (UO-31 renal): > 100 µM; TGI (IGROV1 ovarian): 58.3 µM; TGI (UACC-257 melanoma): 32.9 µM; TGI (NCI-H522 lung): > 100 µM; TGI (SK-MEL-28 melanoma): 60.3 µM; TGI (SK-OV-3 ovarian): > 100 µM; TGI (OVCAR-8 ovarian): > 100 µM; TGI (BT-549 breast): > 100 µM; TGI (SR leukemia): 87 µM; TGI (HT29 colon): 70 µM; TGI (MDA-MB-231 breast): > 100 µM; TGI (M14 melanoma): 65.9 µM; TGI (COLO 205 colon): 49.3 µM; TGI (HCC-2998 colon): 53.2 µM; TGI (SN12C renal): > 100 µM; TGI (786-0 renal): > 100 µM; TGI (HS 578T breast): > 100 µM; TGI (UACC-62 melanoma): 44.2 µM; TGI (HOP-92 NSCLC): > 100 µM; TGI (U251 CNS): > 100 µM; TGI (CCRF-CEM leukemia): 54.2 µM; TGI (MCF7 breast): 90.6 µM; TGI (SK-MEL-5 melanoma): 27.6 µM; TGI (SF-539 CNS): > 100 µM; TGI (NCI-H460 lung): 93.5 µM; TGI (LOX IMVI melanoma): 57.8 µM; TGI (K-562 leukemia): 49.4 µM; TGI (PC-3 prostate): > 100 µM; TGI (NCI/ADR-RES ovarian): > 100 µM; TGI (EKVX NSCLC): > 100 µM; TGI (KM12 colon): > 100 µM; TGI (A549 NSCLC): 61.2 µM; TGI (SNB-19 CNS): > 100 µM; TGI (NCI-H226 lung): > 100 µM; TGI (OVCAR-5 ovarian): > 100 µM; TGI (SW-620 colon): > 100 µM; TGI (RPMI-8226 leukemia): > 100 µM; TGI (NCI-H23 lung): 35 µM; TGI (MDA-MB-435): > 100 µM; TGI (HCT-116 colon): 63.9 µM; TGI (SF-295 CNS): > 100 µM; TGI (SNB-75 CNS): > 100 µM; TGI (RXF 393 renal): > 100 µM; TGI (ACHN renal): > 100 µM; TGI (HL-60(TB) leukemia): 48.4 µM; TGI (SF-268 CNS): > 100 µM; TGI (CAKI-1 renal): > 100 µM; TGI (HOP-62 NSCLC): > 100 µM; TGI (T-47D breast): > 100 µM; TGI (SK-MEL-2 melanoma): 86.1 µM; TGI (MALME-3M melanoma): 49.8 µM; TGI (HCT-15 colon): 45.6 µM; TGI (DU-145 prostate): 28.2 µM; TGI (OVCAR-3 ovarian): > 100 µM; TGI (MOLT-4 leukemia): > 100 µM
